# Biological target: Serine/threonine-protein kinase PLK1 (Homo sapiens, UniProt P53350)
# Test: Fluorescent Polarization Binding Assay
# Conditions: pH 8; 25 °C
# Serine/threonine-protein kinase PLK1, sequence (P53350 whole entry): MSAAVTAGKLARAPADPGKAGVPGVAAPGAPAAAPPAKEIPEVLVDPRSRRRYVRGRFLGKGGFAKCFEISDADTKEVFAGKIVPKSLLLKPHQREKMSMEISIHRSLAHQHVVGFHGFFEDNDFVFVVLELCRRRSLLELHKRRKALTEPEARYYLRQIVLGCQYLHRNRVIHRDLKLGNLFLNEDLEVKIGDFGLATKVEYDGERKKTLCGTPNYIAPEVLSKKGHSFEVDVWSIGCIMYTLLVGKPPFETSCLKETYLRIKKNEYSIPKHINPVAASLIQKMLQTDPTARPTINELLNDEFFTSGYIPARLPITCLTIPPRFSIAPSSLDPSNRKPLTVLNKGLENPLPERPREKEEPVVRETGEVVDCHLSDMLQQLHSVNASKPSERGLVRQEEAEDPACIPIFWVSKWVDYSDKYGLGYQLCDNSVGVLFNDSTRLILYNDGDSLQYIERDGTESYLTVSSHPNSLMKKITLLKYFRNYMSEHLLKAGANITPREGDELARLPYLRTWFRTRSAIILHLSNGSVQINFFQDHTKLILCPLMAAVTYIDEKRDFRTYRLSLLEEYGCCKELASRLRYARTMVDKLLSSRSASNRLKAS
structure (smiles),measurement,value
"CNC(=O)c1cc(CCCN2CCOCC2)n(-c2ccccc2)c1C [US9175357, 5600]",IC50,550 µM

# From BindingDB's records for patent US9175357 (University of South Carolina, 2015)
